Assay results taken from PubChem BioAssay AID180 (DTP/NCI, 2004).
Where “and” joins values, the source holds several entries; their conditions need not be identical. Identical values can stand only once.

Test system: BDF1 mice, Adenocarcinoma 755 s.c., tumor weight T/C
Test: NCI In Vivo Anticancer Drug Screen. Data for tumor model Adenocarcinoma 755 (subcutaneous) in B6D2F1 (BDF1) mice
Conditions: endpoint: mean tumor weight, higher = larger tumour
Outline: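 Readout: T/C, i.e. treated-group measurement over vehicle-control measurement. Endpoint is survival or tumor size in tumor-bearing mice given compound.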

For `C=CC(CN1CC1)OC(C)=O` (stereo not given), the T/C (dose: 0.25 mg/kg/injection, schedule: Q01DX011 (sc), vehicle: saline) was 97 % of control, the T/C (dose: 0.5 mg/kg/injection, schedule: Q01DX010 (oral), vehicle: saline) was 28 % of control and the T/C (dose: 0.5 mg/kg/injection, schedule: Q01DX011 (ip), vehicle: methylcellulose (MC)) was 62 % of control. The T/C (dose: 0.5 mg/kg/injection, schedule: Q01DX011 (sc), vehicle: saline) was 94 % of control, the T/C (dose: 1.0 mg/kg/injection, schedule: Q01DX006 (iv), vehicle: saline) was 63 % of control and the T/C (dose: 1.0 mg/kg/injection, schedule: Q01DX010 (oral), vehicle: saline) was 21 % of control. For the same compound, the T/C (dose: 1.0 mg/kg/injection, schedule: Q01DX011 (ip), vehicle: methylcellulose (MC)) was 49 % of control, the T/C (dose: 1.0 mg/kg/injection, schedule: Q01DX011 (sc), vehicle: saline) was 83 % of control and the T/C (dose: 1.0 mg/kg/injection, schedule: Q02DX004 (im), vehicle: saline) was 93 % of control. For the same compound, the T/C (dose: 1.24 mg/kg/injection, schedule: Q01DX011 (ip), vehicle: carboxymethylcellulose (CMC)) was 202 % of control, the T/C (dose: 1.6 mg/kg/injection, schedule: Q01DX011 (ip), vehicle: carboxymethylcellulose (CMC)) was 36 % of control and the T/C (dose: 1.69 mg/kg/injection, schedule: Q01DX011 (ip), vehicle: carboxymethylcellulose (CMC)) was 81 % of control. The T/C (dose: 1.81 mg/kg/injection, schedule: Q01DX011 (ip), vehicle: carboxymethylcellulose (CMC)) was 76 % of control, the T/C (dose: 2.0 mg/kg/injection, schedule: Q01DX006 (iv), vehicle: saline) was 66 % of control and the T/C (dose: 2.0 mg/kg/injection, schedule: Q01DX010 (oral), vehicle: saline) was 9 % of control. For the same compound, the T/C (dose: 2.0 mg/kg/injection, schedule: Q01DX011 (sc), vehicle: saline) was 47 % of control, the T/C (dose: 2.0 mg/kg/injection, schedule: Q02DX004 (im), vehicle: saline) was 68 % of control and the T/C (dose: 2.48 mg/kg/injection, schedule: Q01DX011 (ip), vehicle: carboxymethylcellulose (CMC)) was 79 % of control. The T/C (dose: 2.7 mg/kg/injection, schedule: Q01DX011 (ip), vehicle: carboxymethylcellulose (CMC)) was 33 % of control, the T/C (dose: 3.2 mg/kg/injection, schedule: Q01DX011 (ip), vehicle: carboxymethylcellulose (CMC)) was 77 % of control and the T/C (dose: 3.25 mg/kg/injection, schedule: Q01DX011 (oral), vehicle: saline) was 50 % of control. The T/C (dose: 3.63 mg/kg/injection, schedule: Q01DX011 (ip), vehicle: carboxymethylcellulose (CMC)) was 51 % of control, the T/C (dose: 3.96 mg/kg/injection, schedule: Q01DX011 (ip), vehicle: carboxymethylcellulose (CMC)) was 29 % of control and 45 % of control and the T/C (dose: 4.0 mg/kg/injection, schedule: Q01DX006 (iv), vehicle: saline) was 38 % of control. The T/C (dose: 4.0 mg/kg/injection, schedule: Q01DX010 (oral), vehicle: saline) was 7 % of control, the T/C (dose: 4.0 mg/kg/injection, schedule: Q01DX011 (sc), vehicle: saline) was 19 % of control and 40 % of control and the T/C (dose: 4.0 mg/kg/injection, schedule: Q02DX004 (im), vehicle: saline) was 57 % of control. For the same compound, the T/C (dose: 6.0 mg/kg/injection, schedule: Q01DX011 (ip), vehicle: carboxymethylcellulose (CMC)) was 26 % of control, the T/C (dose: 6.4 mg/kg/injection, schedule: Q01DX011 (ip), vehicle: carboxymethylcellulose (CMC)) was 26 % of control and the T/C (dose: 6.6 mg/kg/injection, schedule: Q01DX011 (ip), vehicle: carboxymethylcellulose (CMC)) was 7 % of control and 19 % of control. The T/C (dose: 6.75 mg/kg/injection, schedule: Q01DX011 (ip), vehicle: carboxymethylcellulose (CMC)) was 21 % of control, the T/C (dose: 7.25 mg/kg/injection, schedule: Q01DX011 (ip), vehicle: carboxymethylcellulose (CMC)) was 10 % of control and the T/C (dose: 7.5 mg/kg/injection, schedule: Q01DX011 (ip), vehicle: saline) was 2 % of control and 8 % of control. For the same compound, the T/C (dose: 7.5 mg/kg/injection, schedule: Q01DX011 (oral), vehicle: saline) was 19 % of control, the T/C (dose: 8.0 mg/kg/injection, schedule: Q01DX006 (iv), vehicle: saline) was 16 % of control and the T/C (dose: 8.0 mg/kg/injection, schedule: Q01DX011 (ip), vehicle: carboxymethylcellulose (CMC)) was 14 % of control. For the same compound, the T/C (dose: 8.0 mg/kg/injection, schedule: Q01DX011 (sc), vehicle: saline) was 9 % of control, the T/C (dose: 8.0 mg/kg/injection, schedule: Q02DX004 (im), vehicle: saline) was 27 % of control and the T/C (dose: 9.9 mg/kg/injection, schedule: Q01DX011 (ip), vehicle: carboxymethylcellulose (CMC)) was 8 % of control and 11 % of control. The T/C (dose: 12.0 mg/kg/injection, schedule: Q01DX011 (ip), vehicle: carboxymethylcellulose (CMC)) was 3 % of control, the T/C (dose: 15.0 mg/kg/injection, schedule: Q01DX011 (ip), vehicle: saline) was 1 % of control and the T/C (dose: 62.5 micrograms/kg/injection, schedule: Q01DX011 (oral), vehicle: saline) was 51 % of control. For the same compound, the T/C (dose: 125.0 micrograms/kg/injection, schedule: Q01DX011 (oral), vehicle: saline) was 37 % of control, the T/C (dose: 250.0 micrograms/kg/injection, schedule: Q01DX011 (oral), vehicle: saline) was 72 % of control and the T/C (dose: 500.0 micrograms/kg/injection, schedule: Q01DX011 (oral), vehicle: saline) was 86 % of control.

With `N#[N+]c1nc2ncnc(N)c2[nH]1` the T/C (dose: 12.5 mg/kg/injection, schedule: Q01DX011 (ip), vehicle: saline) was 101 % of control and the T/C (dose: 25.0 mg/kg/injection, schedule: Q01DX011 (ip), vehicle: saline) was 70 % of control.

For `NC1=CC(=O)c2cccnc2C1=O`, the T/C (dose: 6.5 mg/kg/injection, schedule: Q01DX011 (ip), vehicle: water) was 111 % of control, the T/C (dose: 10.0 mg/kg/injection, schedule: Q01DX011 (ip), vehicle: water) was 87 % of control and the T/C (dose: 15.0 mg/kg/injection, schedule: Q01DX011 (ip), vehicle: water) was 69 % of control.

With `CCCCCCSc1ncnc2nc[nH]c12` the T/C (dose: 31.0 mg/kg/injection, schedule: Q01DX011 (ip), vehicle: other) was 93 % of control, the T/C (dose: 62.0 mg/kg/injection, schedule: Q01DX011 (ip), vehicle: other) was 35 % of control and the T/C (dose: 125.0 mg/kg/injection, schedule: Q01DX011 (ip), vehicle: other) was 2 % of control. For the same compound, the T/C (dose: 250.0 mg/kg/injection, schedule: Q01DX011 (ip), vehicle: other) was 1 % of control, the T/C (dose: 300.0 mg/kg/injection, schedule: Q01DX010 (ip), vehicle: other) was 5 % of control and the T/C (dose: 400.0 mg/kg/injection, schedule: Q01DX010 (ip), vehicle: other) was 3 % of control.

`CC1CCC(n2cnc3c(=S)nc[nH]c32)O1` (stereo not given) was tested, and the T/C (dose: 1.8 mg/kg/injection, schedule: Q01DX011 (ip), vehicle: carboxymethylcellulose (CMC)) was 86 % of control, the T/C (dose: 3.7 mg/kg/injection, schedule: Q01DX011 (ip), vehicle: carboxymethylcellulose (CMC)) was 12 % of control and the T/C (dose: 7.5 mg/kg/injection, schedule: Q01DX011 (ip), vehicle: carboxymethylcellulose (CMC)) was 3 % of control. For the same compound, the T/C (dose: 15.0 mg/kg/injection, schedule: Q01DX011 (ip), vehicle: carboxymethylcellulose (CMC)) was 3 % of control.
